For orientation: EC50 means the concentration needed to bring the measured effect to its halfway point.

This experiment addresses T1, human mGluR5d (Homo sapiens, UniProt P41594).
T1 construct: expressed in transfected cells; host or cells: GHEK cells (human embryonic kidney cells expressing glutamate transporter), stated for the IP3 assay
Kind of experiment: functional assays for mGluR5 potentiation: [Ca2+]i mobilization (FLIPR), secondary IP3 turnover assay. Format: cell-based. The conditions noted are these: active in assays described herein; which assay (FLIPR or IP3) is not stated. The text has this: The pharmacological properties of the compounds of the invention can be analyzed using standard assays for functional activity. Examples of glutamate receptor assays are well known in the art as described in for example Aramori et al., Neuron 8:757 (1992), Tanabe et al., Neuron 8:169 (1992), Miller et al., J Neuroscience 15: 6103 (1995), Balazs, et al., J. Neurochemistry 69:151 (1997). The methodology described in these publications is incorporated herein by reference. Conveniently, the compounds of the invention can be studied by means of an assay that measures the mobilization of intracellular calcium, [Ca^2+]i in cells expressing mGluR5.
Intracellular calcium mobilization was measured by detecting changes in fluorescence of cells loaded with the fluorescent indicator fluo-3. Fluorescent signals were measured using the FLIPR system (Molecular Devices). A two addition experiment was used that could detect compounds that either activate or antagonize the receptor.
For FLIPR analysis, cells expressing human mGluR5d were seeded on collagen coated clear bottom 96-well plates with black sides and analysis of [Ca^2+]i mobilization was done 24 hours after seeding.
FLIPR experiments were performed using a laser setting of 0.800 W and a 0.4 second CCD camera shutter speed. Each FLIPR experiment was initiated with 160 μL of buffer present in each well of the cell plate. After each addition of the compound, the fluorescence signal was sampled 50 times at 1 second intervals followed by 3 samples at 5 second intervals. Responses were measured as the peak height of the response within the sample period.
EC50 and IC50 determinations were made from data obtained from 8-point concentration response curves (CRC) performed in duplicate. Agonist CRC were generated by scaling all responses to the maximal response observed for the plate. Antagonist block of the agonist challenge was normalized to the average response of the agonist challenge in 14 control wells on the same plate.
We have validated a secondary functional assay for mGluR5d based on Inositol Phosphate (IP3) turnover. IP3 accumulation is measured as an index of receptor mediated phospholipase C turnover. GHEK cells stably expressing the human mGluR5d receptors were incubated with [3H] myo-inositol overnight, washed three times in HEPES buffered saline and pre-incubated for 10 minutes with 10 mM LiCl. Compounds (agonists) were added and incubated for 30 minutes at 37° C. Antagonist and potentiator activity was determined by pre-incubating test compounds for 15 minutes, then incubating in the presence of glutamate or DHPG (EC80 for antagonists, EC30 for potentiators) for 30 minutes. Reactions were terminated by the addition of perchloric acid (5%). […]

T1 sequence (P41594 21-942 isoform P41594-3 limits assumed): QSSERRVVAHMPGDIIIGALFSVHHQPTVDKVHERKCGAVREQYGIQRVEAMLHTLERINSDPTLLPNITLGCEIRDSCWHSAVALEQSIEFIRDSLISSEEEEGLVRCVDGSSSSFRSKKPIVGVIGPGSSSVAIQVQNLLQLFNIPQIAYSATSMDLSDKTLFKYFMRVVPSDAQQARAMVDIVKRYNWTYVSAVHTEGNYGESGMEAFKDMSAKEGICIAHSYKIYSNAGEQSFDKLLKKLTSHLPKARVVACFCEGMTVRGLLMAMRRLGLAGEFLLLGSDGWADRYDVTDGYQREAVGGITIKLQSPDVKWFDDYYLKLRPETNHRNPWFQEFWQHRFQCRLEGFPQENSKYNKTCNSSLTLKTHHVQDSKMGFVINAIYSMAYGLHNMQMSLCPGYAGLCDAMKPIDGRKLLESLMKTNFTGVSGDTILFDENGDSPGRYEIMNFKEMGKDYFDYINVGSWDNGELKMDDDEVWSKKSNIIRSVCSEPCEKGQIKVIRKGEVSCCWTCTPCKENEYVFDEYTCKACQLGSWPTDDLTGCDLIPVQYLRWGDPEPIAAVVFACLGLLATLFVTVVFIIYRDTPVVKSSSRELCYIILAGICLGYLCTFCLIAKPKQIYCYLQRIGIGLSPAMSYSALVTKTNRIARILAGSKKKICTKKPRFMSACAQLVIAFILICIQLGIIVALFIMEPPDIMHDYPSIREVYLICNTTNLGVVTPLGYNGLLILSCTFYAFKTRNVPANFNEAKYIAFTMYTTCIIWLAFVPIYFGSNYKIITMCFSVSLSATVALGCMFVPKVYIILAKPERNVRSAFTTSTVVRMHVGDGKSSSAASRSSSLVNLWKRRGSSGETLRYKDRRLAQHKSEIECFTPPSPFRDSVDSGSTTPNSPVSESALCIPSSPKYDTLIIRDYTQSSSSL

As to `O=C(COCc1ccccc1)N1CCN(c2ccccc2)CC1` [Compound 12, 2-Benzyloxy-1-(4-phenyl-piperazin-1-yl)-ethanone], the concentration for a half-maximal effect (EC50) is 600 nM. `N#Cc1cccnc1N1CCN(C(=O)COCc2ccccc2)CC1` [Compound 23, 2-[4-(2-Benzyloxy-acetyl)-piperazin-1-yl]-nicotinonitrile]: the EC50 turned out to be 5100 nM. For `O=C(COCc1ccc(F)cc1)N1CCN(c2ccc(F)cc2F)CC1` [Compound 48, 1-[4-(2,4-Difluoro-phenyl)-piperazin-1-yl]-2-(4-fluoro-benzyloxy)-ethanone], the EC50 worked out at 400 nM. The result for `C[C@@H]1CN(c2ccc(Cl)cc2Cl)CCN1C(=O)COCc1ccncc1` [Compound 58, 1-[(R)-4-(2,4-Dichloro-phenyl)-2-methyl-piperazin-1-yl]-2-(pyridin-4-ylmethoxy)-ethanone] reads 2300 nM.

For the origin of these results see US7935703B2, “Piperazines and piperidines as Mglur5 potentiators” (AstraZeneca AB, priority 2006, dated 2011).
